Laboratory results from US7205436B2, “Process for manufacture of quaternary ammonium tosylate salts of cinnamidoalkylamines and / or benzamidoalkylamines” (Galaxy Surfactants Limited, priority 2003, dated 2007).

Assay: UV absorption: molar extinction coefficient in methanol
Type: physicochemical
Settings: at λmax 310 nm in methanol

- molar extinction coefficient, ε: 25,000
Compound: CCCCCCCCCCCC[N+](C)(C)CCCNC(=O)C=Cc1ccc(OC)cc1.Cc1ccc(S(=O)(=O)[O-])cc1 [Example I, p-methoxy cinnamidopropyldimethyllauryl ammonium tosylate]
